From ChEMBL document CHEMBL6078649, “Discovery of Chalcone Derivatives as Bifunctional Molecules with Anti-SARS-CoV-2 and Anti-inflammatory Activities” (J Nat Prod, 2024)

Experiments:
[1] = target: Replicase polyprotein 1ab (Severe acute respiratory syndrome coronavirus 2) (UniProt P0DTD1); test: Inhibition of SARS-CoV-2 3CLPro using DabcylKNSTLQSGLRK-Edans as substrate at 5 uM preincubated for 30 mins followed by substrate addition measured after 20 mins by FRET assay relative to control; details: time 50.0 min
[2] = target: Replicase polyprotein 1ab (Severe acute respiratory syndrome coronavirus 2) (UniProt P0DTD1); test: Inhibition of SARS-CoV-2 3CLPro using DabcylKNSTLQSGLRK-Edans as substrate at 50 uM preincubated for 30 mins followed by substrate addition measured after 20 mins by FRET assay relative to control; details: time 50.0 min
[3] = Cytotoxicity against human Huh-7 cells harboring viral replicon/EGFP/Neo genes assessed as cell viability at 5 uM incubated for 24 hrs by Cell Titer Glo assay relative to control; type: toxicity, cell-based; details: read-out: Activity
[4] = Cytotoxicity against human Huh-7 cells harboring viral replicon/EGFP/Neo genes assessed as cell viability at 50 uM incubated for 24 hrs by Cell Titer Glo assay relative to control; type: toxicity, cell-based; details: read-out: Activity
[5] = Cytotoxicity against human Huh-7 cells harboring viral replicon/EGFP/Neo genes assessed as cell viability incubated for 24 hrs by Cell Titer Glo assay; type: toxicity, cell-based
[6] = system: RAW264.7; test: Anti-inflammatory activity against mouse RAW264.7 cells assessed as inhibition of LPS-induced NO production at 1 uM preincubated for 1 hr followed by LPS treatment measured after 24 hrs relative to control; type: functional; details: time 25 hrs
[7] = system: RAW264.7; test: Anti-inflammatory activity against mouse RAW264.7 cells assessed as inhibition of LPS-induced NO production at 10 uM preincubated for 1 hr followed by LPS treatment measured after 24 hrs relative to control; type: functional; details: time 25 hrs
[8] = Cytotoxicity against mouse RAW264.7 cells assessed as cell viability at 1 uM incubated for 24 hrs by CCK8 assay relative to control; type: toxicity, cell-based; details: read-out: Activity
[9] = Cytotoxicity against mouse RAW264.7 cells assessed as cell viability at 10 uM incubated for 24 hrs by CCK8 assay relative to control; type: toxicity, cell-based; details: read-out: Activity
[10] = Cytotoxicity against mouse RAW264.7 cells assessed as cell viability at 50 uM incubated for 24 hrs by CCK8 assay relative to control; type: toxicity, cell-based; details: read-out: Activity
[11] = target: Replicase polyprotein 1ab (Severe acute respiratory syndrome coronavirus 2, UniProt P0DTD1)

Compound: CC(=O)Oc1c(Cl)c(/C=C/C(=O)c2ccc(F)cc2)c(Cl)c(OC(C)=O)c1OC(C)=O
- inhibition [1]: 1.1%
- inhibition [2]: 1%
- viability at 24 h, 5 µM [3]: 111%
- viability at 24 h, 50 µM [4]: 62%
- CC50 at 24 h [5]: > 50000 nM
- inhibition at 1 µM [6]: 37.4%
- inhibition at 10 µM [7]: 85.2%
- viability at 24 h, 1 µM [8]: 93.8%
- viability at 24 h, 10 µM [9]: 97.5%
- viability at 24 h, 50 µM [10]: 54.1%
- IC50 [11]: 247 nM

Compound: O=C(/C=C/c1c(Cl)c(O)c(O)c(O)c1Cl)c1ccc(Cl)cc1
- inhibition [1]: 0.4%
- inhibition [2]: 0.4%
- inhibition at 1 µM [6]: 27%
- inhibition at 10 µM [7]: 81.1%
- viability at 24 h, 1 µM [8]: 81.2%
- viability at 24 h, 10 µM [9]: 68.7%
- viability at 24 h, 50 µM [10]: 22.6%
- IC50 [11]: 630 nM

Compound: Oc1cc(CCCc2ccc(F)cc2)cc(O)c1O
- inhibition [1]: 18%
- inhibition [2]: 2%
- inhibition at 1 µM [6]: -45.7%
- inhibition at 10 µM [7]: -14.6%
- viability at 24 h, 1 µM [8]: 94%
- viability at 24 h, 10 µM [9]: 108%
- viability at 24 h, 50 µM [10]: 93.6%
- IC50 [11]: 2400 nM

Compound: O=C(/C=C/c1c(Cl)c(O)c(O)c(O)c1Cl)c1ccc(O)cc1
- inhibition [1]: 1.3%
- inhibition [2]: 1.9%
- viability at 24 h, 5 µM [3]: 105%
- viability at 24 h, 50 µM [4]: 87.9%
- inhibition at 1 µM [6]: 16.6%
- inhibition at 10 µM [7]: 37.4%
- viability at 24 h, 1 µM [8]: 122%
- viability at 24 h, 10 µM [9]: 95.6%
- viability at 24 h, 50 µM [10]: 114%
- IC50 [11]: 192 nM

Compound: O=C(O)/C=C/c1c(Cl)c(O)c(O)c(O)c1Br
- inhibition [1]: 30.7%
- inhibition [2]: 1.8%
- inhibition at 1 µM [6]: 39.5%
- inhibition at 10 µM [7]: -6.2%
- viability at 24 h, 1 µM [8]: 93.6%
- viability at 24 h, 10 µM [9]: 74%
- viability at 24 h, 50 µM [10]: 92.3%
- IC50 [11]: 3460 nM

Compound: O=C(/C=C/c1c(Cl)c(O)c(O)c(O)c1Cl)c1ccc(F)cc1Cl
- inhibition [1]: 1.1%
- inhibition [2]: 1.6%
- viability at 24 h, 5 µM [3]: 104%
- viability at 24 h, 50 µM [4]: 56.9%
- inhibition at 1 µM [6]: 16.6%
- inhibition at 10 µM [7]: 87.3%
- viability at 24 h, 1 µM [8]: 118%
- viability at 24 h, 10 µM [9]: 122%
- viability at 24 h, 50 µM [10]: 52.4%
- IC50 [11]: 310 nM

Compound: O=C(/C=C/c1c(Cl)c(O)c(O)c(O)c1Cl)c1c(Cl)cc(Cl)cc1Cl
- inhibition [1]: 1.2%
- inhibition [2]: 0.7%
- inhibition at 1 µM [6]: 33.3%
- inhibition at 10 µM [7]: 79%
- viability at 24 h, 1 µM [8]: 78.7%
- viability at 24 h, 10 µM [9]: 58.5%
- viability at 24 h, 50 µM [10]: 13%
- IC50 [11]: 404 nM

Compound: O=C(/C=C/c1c(Cl)c(O)c(O)c(O)c1Cl)c1ccccc1
- inhibition [1]: 1%
- inhibition [2]: -0.3%
- viability at 24 h, 5 µM [3]: 105%
- viability at 24 h, 50 µM [4]: 64.2%
- inhibition at 1 µM [6]: 14.6%
- inhibition at 10 µM [7]: 39.5%
- viability at 24 h, 1 µM [8]: 95.5%
- viability at 24 h, 10 µM [9]: 66.8%
- viability at 24 h, 50 µM [10]: 96.9%
- IC50 [11]: 143 nM

Compound: O=C(O)/C=C/c1c(Cl)c(O)c(O)c(O)c1Cl
- inhibition [1]: 3.1%
- inhibition [2]: 2.9%
- inhibition at 1 µM [6]: 27%
- inhibition at 10 µM [7]: -14.6%
- viability at 24 h, 1 µM [8]: 93.8%
- viability at 24 h, 10 µM [9]: 92.4%
- viability at 24 h, 50 µM [10]: 82.1%
- IC50 [11]: 840 nM

Compound: O=C(/C=C/c1c(Cl)c(O)c(O)c(O)c1Cl)c1ccc([N+](=O)[O-])cc1
- inhibition [1]: 0.6%
- inhibition [2]: -0.2%
- viability at 24 h, 5 µM [3]: 110%
- viability at 24 h, 50 µM [4]: 74.7%
- inhibition at 1 µM [6]: 2.1%
- inhibition at 10 µM [7]: 70.7%
- viability at 24 h, 1 µM [8]: 115%
- viability at 24 h, 10 µM [9]: 110%
- viability at 24 h, 50 µM [10]: 77.4%
- IC50 [11]: 276 nM

Compound: O=C(/C=C/c1c(Cl)c(O)c(O)c(O)c1Cl)c1ccco1
- inhibition [1]: -1.1%
- inhibition [2]: -0.7%
- viability at 24 h, 5 µM [3]: 102%
- viability at 24 h, 50 µM [4]: 70.7%
- inhibition at 1 µM [6]: 45.7%
- inhibition at 10 µM [7]: 62.4%
- viability at 24 h, 1 µM [8]: 82%
- viability at 24 h, 10 µM [9]: 82.2%
- viability at 24 h, 50 µM [10]: 94.7%
- IC50 [11]: 95.5 nM

Compound: O=C(/C=C/c1c(Cl)c(O)c(O)c(O)c1Cl)c1cccc(-c2ccc(Cl)c(Cl)c2)c1
- inhibition [1]: 79.3%
- inhibition at 1 µM [6]: 16.6%
- inhibition at 10 µM [7]: 70.7%
- viability at 24 h, 1 µM [8]: 69.1%
- viability at 24 h, 10 µM [9]: 29.4%
- viability at 24 h, 50 µM [10]: 4.2%
- IC50 [11]: > 5000 nM

Compound: O=C(O)[C@H](O)Cc1ccc(O)c(O)c1
- inhibition [1]: 5.3%
- EC50 [11]: > 50000 nM
- IC50 [11]: 2150 nM
